pIC50: −log10 of the molar value.
Experiments:
Trypanosoma cruzi [1] = experiment: GSK_TCAKS: pIC50 Trypanosoma cruzi viability assay using beta-GAL activity. This assay was run at single shot at 5uM compound concentration per well. The biological reagents consisted of NIH-3T3 host cells and trypomastigotes parasitic cells; both cell types were set to a 3.3 * 10^5 cells/mL dilution in assay DMEM by means of a CASY cell counter device using a 60um capillary. 6 uL of the mixture were dispensed per well (about 1 * 10^3 host-cells and 1 * 10^3 parasites) with a Multidrop Combi dispenser. […] In all wells, the percentage of DMSO never exceeded 0.5%. Plates incubated for four days at 37C, 5% CO2. The substrate used for the assay fluorescence intensity (FLINT) readout was resorufin-beta-D-galactopiranoside (Sigma-Aldrich) at 5uM per well. It was diluted in PBS supplemented with the soft detergent Igepal (Fluka).; type: functional, organism-based, Mus musculus; conditions: Tulahuen, NIH3T3
Trypanosoma cruzi [2] = experiment: (§1) GSK_TCAKS: pIC50 Trypanosoma cruzi Imaging: Infected Cells. […] Cells were then washed once with PBS before infection. T. cruzi trypomastigotes, collected at days 5 to 8 after infection from LLC-MK2 parasite infected cultures, were allowed to swim out for 4h at 37C from a centrifuged pellet (2,500 rpm/10 min/room temperature). Trypomastigotes were then collected and counted in a CASY Cell Counter. Trypomastigotes, in supplemented DMEM, were added to H9c2 cultures in a multiplicity of infection of 1 and incubated for 18 h. Cells were washed once with PBS before incubation of the infected H9c2 monolayer with trypsin (Life-Technologies) to detach cells from the flask. Cells were counted in a CASY Cell Counter using a 150 um capillary and their density set at 5 * 10^4 cells per mL in supplemented assay DMEM. Infected H9c2 were dispensed into 384-well poly-lysine coated assay plates at 50uL per well using a Multidrop Combi dispenser. After seeding them, the plates were incubated at 37C, 5% CO2 for 72h. Cultures were then fixed and stained by addition of 50 uL of a solution containing 8% formaldehyde and 4 uM DRAQ5 DNA dye (BioStatus, UK) per well. […] Five images were collected per well for reliable statistical analysis. Automated image analysis was performed with a script developed on Acapella High Content Imaging and Analysis Software (PerkinElmer). Output: percentage of infected cells per well as a second infection marker.; type: functional, organism-based, Rattus norvegicus; conditions: H9c2, 4 h
Trypanosoma cruzi [3] = experiment: GSK_TCAKS: pIC50 Trypanosoma cruzi Imaging: Amastigotes/Cell. […] Cells were then washed once with PBS before infection. T. cruzi trypomastigotes, collected at days 5 to 8 after infection from LLC-MK2 parasite infected cultures, were allowed to swim out for 4h at 37C from a centrifuged pellet (2,500 rpm/10 min/room temperature). Trypomastigotes were then collected and counted in a CASY Cell Counter. Trypomastigotes, in supplemented DMEM, were added to H9c2 cultures in a multiplicity of infection of 1 and incubated for 18 h. Cells were washed once with PBS before incubation of the infected H9c2 monolayer with trypsin (Life-Technologies) to detach cells from the flask. Cells were counted in a CASY Cell Counter using a 150 um capillary and their density set at 5 * 10^4 cells per mL in supplemented assay DMEM. Infected H9c2 were dispensed into 384-well poly-lysine coated assay plates at 50uL per well using a Multidrop Combi dispenser. After seeding them, the plates were incubated at 37C, 5% CO2 for 72h. Cultures were then fixed and stained by addition of 50 uL of a solution containing 8% formaldehyde and 4 uM DRAQ5 DNA dye (BioStatus, UK) per well. […] Five images were collected per well for reliable statistical analysis. Automated image analysis was performed with a script developed on Acapella High Content Imaging and Analysis Software (PerkinElmer). Output: number of amastigotes per cell as infection level measurement.; type: functional, organism-based, Rattus norvegicus; conditions: H9c2, 4 h
Trypanosoma cruzi [4] = experiment: as §1, with “H2C9” for “Trypanosoma cruzi”, “H9c2 Host Cardiomyocytes.” for “Infected Cells.”, “Number” for “percentage”, “H9c2 Host Cardiomyocytes nuclei to determine drug-related cytotoxicity.” for “infected cells per well as a second infection marker.”; type: functional, organism-based, Rattus norvegicus; conditions: H9c2, 4 h
Leishmania donovani [5] = experiment: GSK_TCAKS: pIC50 Leishmania donovani viability assay using fluorescence intensity. Assay plates (1536-well) were prepared by adding 30nL per well of compound. For single shot assay, the final compound concentration was 5uM. […] Briefly, eGFP LdBOB axenic amastigotes were harvested, fixed and counted in a CASY cell counter (Roche-Applied Science). A final concentration of 1.5 * 10^5 cells per well were prepared in amastigote media containing 500 U/mL penicillin/streptomycin (Invitrogen) and 6uL was dispensed to each experimental well using a Multidrop Combi dispenser (Thermo Scientific). 6uL of assay media was dispensed to control columns used as reference for 100% compound response. Following incubation for 72 h at 37C, 5% CO2, 2 uL of resazurin was added to each well at a final concentration of 0.5 mM in phosphate buffered saline (PBS) with IGEPAL (Sigma-Aldrich), 0.05% (v/v).; type: functional, organism-based
Leishmania donovani [6] = experiment: GSK_TCAKS: pIC50 Leishmania donovani Imaging: Infected Macrophages. Assay plates (384-well) were prepared by adding 250nL of compound to each well. For single shot assay, the final compound concentration was 5 uM. […] Automated image analysis was performed with a script developed on Acapella High Content Imaging and Analysis Software (PerkinElmer). Output: Percent of infected macrophage cells were reported for each well.; type: functional, organism-based, Homo sapiens; conditions: THP-1
Leishmania donovani [7] = experiment: GSK_TCAKS: pIC50 Leishmania donovani Imaging: Amastigotes/Macrophages. Assay plates (384-well) were prepared by adding 250nL of compound to each well. For single shot assay, the final compound concentration was 5 uM. […] Automated image analysis was performed with a script developed on Acapella High Content Imaging and Analysis Software (PerkinElmer). Output: Average number of amastigotes per macrophage cell were reported for each well.; type: functional, organism-based, Homo sapiens; conditions: THP-1
Leishmania donovani [8] = experiment: GSK_TCAKS: pIC50 Leishmania donovani Imaging: THP-1 Host Macrophages. Assay plates (384-well) were prepared by adding 250nL of compound to each well. For single shot assay, the final compound concentration was 5 uM. […] Automated image analysis was performed with a script developed on Acapella High Content Imaging and Analysis Software (PerkinElmer). Output: THP-1 cell count were reported for each well.; type: functional, organism-based, Homo sapiens
[9] = system: Trypanosoma brucei brucei; experiment: GSK_TCAKS: pIC50 Trypanosoma brucei viability assay using fluorescence intensity. Assay plates (1536-well) were prepared by dispensing 25nL of compound solution per well using an Echo acoustic dispenser (Labcyte).; type: functional, organism-based; conditions: Lister 427, 2 h
[10] = system: Trypanosoma brucei brucei; experiment: GSK_TCAKS: pIC50 Trypanosoma brucei viability assay using luminiscence. Assay plates (1536-well) were prepared. T. brucei cultures were harvested and counted in a CASY cell counter. A parasite suspension was prepared at a final concentration of 5 * 10^4 cells/mL in complete HMI9 medium and 6uL was dispensed to all wells containing compounds using a Multidrop Combi dispenser. 6uL of HMI9 media with 0.4% DMSO were dispensed to control columns. Plates were incubated for 24 h at 37C, 5% CO2 then tempered for 10 min at room temperature. ATP content was quantified by adding 4 uL of CellTiter-Glo Reagent (Promega) according to the manufacturer's instructions. Luminescence was measured using a ViewLux.; type: functional, organism-based; conditions: Lister 427, CASY
[11] = GSK_TCAKS: pIC50 HepG2 human cell line viability assay using luminiscence. […] Seeding density was checked to ensure that new mono-layers were not more than 50% confluent at the time of harvesting. Cell suspension was added to 500 mL of the same medium at a final density of 1.2 * 10^5 cells/mL. This cell suspension was dispensed (25 uL, 3000 cells per well) into 384-well clear-bottom plates using a Multidrop Combi dispenser. Prior to addition of the cell suspension, the screening compounds (250 nL) were pre-dispensed into the plates with an Echo liquid handler. Plates were incubated for 48 h at 37C, 5% CO2. After incubation, plates equilibrated at room temperature for 30 min before proceeding to develop the luminescent signal. The signal developer, CellTiter-Glo Reagent, was allowed to equilibrate at room temperature for 30 min and added to the plates (25uL per well) using a Multidrop Combi dispenser. Plates were left for 10 min at room temperature for stabilization and then read using a ViewLux.; type: toxicity, cell-based
NIH3T3 = experiment: GSK_TCAKS: pIC50 NIH 3T3 cell line viability assay using luminiscence. Tissue culture surface treated assay plates (1536-well) were used. […] The 100% cells survival control was determined exposing the host-cells to a 0.5% DMSO concentration, whereas the 100% toxicity control was achieved by seeding the cells in presence of Amphotericin B at 50uM. Plates were incubated for four days at 37C, 5% CO2. The assay readout was developed by addition of 5uL of CellTiter-Glo Reagent following the manufacturer's instructions. Luminiscence was measured using a ViewLux.; type: functional, cell-based; conditions: Mus musculus, NIH3T3, 96 h
[12] = target: Sterol 14-alpha demethylase (Trypanosoma cruzi (strain CL Brener), UniProt Q7Z1V1); experiment: GSK_TCAKS: pIC50 CYP51 from Trypanosoma cruzi.; type: functional
Sterol 14-alpha demethylase, sequence (Q7Z1V1 whole entry): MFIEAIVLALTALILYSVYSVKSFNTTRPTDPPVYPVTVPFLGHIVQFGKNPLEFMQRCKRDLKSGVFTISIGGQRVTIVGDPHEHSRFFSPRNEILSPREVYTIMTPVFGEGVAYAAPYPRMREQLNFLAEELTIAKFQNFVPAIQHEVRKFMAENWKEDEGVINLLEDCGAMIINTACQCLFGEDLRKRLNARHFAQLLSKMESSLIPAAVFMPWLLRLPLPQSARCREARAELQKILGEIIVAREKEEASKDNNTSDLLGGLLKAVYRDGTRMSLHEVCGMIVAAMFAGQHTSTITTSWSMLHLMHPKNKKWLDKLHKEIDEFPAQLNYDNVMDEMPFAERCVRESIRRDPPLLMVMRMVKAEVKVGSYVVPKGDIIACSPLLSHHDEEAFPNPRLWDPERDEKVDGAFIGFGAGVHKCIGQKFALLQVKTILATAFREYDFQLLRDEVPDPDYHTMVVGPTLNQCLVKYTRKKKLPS

Compound	pIC50 (Trypanosoma cruzi [1])	pIC50 (Trypanosoma cruzi [2])	pIC50 (Trypanosoma cruzi [3])	pIC50 (Trypanosoma cruzi [4])	pIC50 (Leishmania donovani [5])	pIC50 (Leishmania donovani [6])	pIC50 (Leishmania donovani [7])	pIC50 (Leishmania donovani [8])	pIC50 [9]	pIC50 [10]	IC50 at 48 h [11] [µM]	pIC50 (NIH3T3)	pIC50 [12]
O=C(NCC1CCCCC1)c1cnns1	5.60	5.50	5.70	< 4.30	4.90	< 4.30	5.00	< 4.30	6.00	5.90	39.8	< 4.30	< 4.00
O=C(Nc1cccc(F)c1)N1CCC(Oc2cccc(-c3cccnc3)c2)CC1	6.20	6.20	6.30	4.60	6.30	< 4.30	6.10	4.70	4.60	< 4.40	> 100	4.40	6.80
CS(=O)(=O)c1cccc(CNC(=O)c2cncc(N3CCN(c4ccc(F)cc4)CC3)c2)c1	6.20	6.40	6.60	< 4.30	< 4.30	< 4.30	< 4.30	< 4.30	4.50	< 4.40	> 100	4.60	4.90
CCCN1CCN(Cc2ccc(S(=O)(=O)Nc3cccc(C)c3)cc2)CC1	6.10	6.10	6.20	< 4.30	4.60	< 4.30	< 4.30	< 4.30	4.60	< 4.40	> 100	4.60	< 4.00
O=C(NCc1ccncc1)c1ccccc1N1CCCN(C(=O)Cc2ccc(F)c(F)c2)CC1	6.90	7.10	7.10	< 4.30	5.60	< 4.30	< 4.30	< 4.30	5.20	4.70	> 100	4.80	7.10
Cc1ccc(C)c(-n2nnnc2Sc2nc([N+](=O)[O-])nn2C)c1	6.30	6.10	6.60	< 4.30	< 4.30	< 4.30	< 4.30	< 4.30	4.90	4.80	> 100	< 4.30	< 4.00
O=C(NCCc1cccnc1)c1ccc(-c2ccccc2F)o1	6.95	6.70	6.70	< 4.30	4.70	< 4.30	< 4.30	< 4.30	4.50	< 4.40	> 100	4.40	7.20
Cc1ccc(S(=O)(=O)Cn2nnnc2C(c2cccnc2)N2CCN(c3ccccc3)CC2)cc1 (stereo not given)	6.30	6.50	6.50	< 4.30	6.00	< 4.30	< 4.30	< 4.30	4.50	< 4.40	> 100	4.50	6.70
COc1ccc(C(C)N(C)c2ncc3c(N)nc(N)nc3n2)cc1F (stereo not given)	7.10	6.70	7.20	4.60	5.40	4.80	4.90	< 4.30	4.90	5.30	> 100	4.40	< 4.00
O=C(Nc1ccc(Br)cn1)c1ccc(Cn2cnc([N+](=O)[O-])n2)cc1	6.80	6.90	7.10	< 4.30	< 4.30	< 4.30	< 4.30	< 4.30	5.80	5.50	> 100	< 4.30	< 4.00

— ChEMBL document CHEMBL3430912, “GSK Tres Cantos Anti-Kinetoplastid Screening (TCAKS) Data”
